Measured values reported in ChEMBL document CHEMBL1687752, “Impact of antifungal prophylaxis on colonization and azole susceptibility of Candida species” (2009).

Assays:
Format in all cases: functional
Pichia kudriavzevii [1] = assay: Antifungal activity against Candida krusei isolated from neutropenic subjects with AML or MDS prior to initiation of fluconazole therapy assessed as maximum MIC by broth microdilution method
Candida albicans [2] = assay: Antifungal activity against Candida albicans isolated from HSCT recipients with acute or chronic GVHD receiving posaconazole by broth microdilution method
Nakaseomyces glabratus [3] = assay: Antifungal activity against 7 days cultured Candida glabrata isolated from neutropenic subject with AML or MDS stool receiving antifungal therapy for 37 days after 9 days of prophylaxis by broth microdilution method
Nakaseomyces glabratus [4] = assay: Antifungal activity against Candida glabrata isolated from HSCT recipients with acute or chronic GVHD prior to initiation of fluconazole therapy by broth microdilution method
Pichia kudriavzevii [5] = assay: Antifungal activity against Candida krusei isolated from neutropenic subjects with AML or MDS receiving fluconazole assessed as maximum MIC by broth microdilution method
Nakaseomyces glabratus [6] = assay: Antifungal activity against Candida glabrata isolated from HSCT recipient 270 with acute or chronic GVHD mouth after 108 days prophylaxis by broth microdilution method
Candida albicans [7] = assay: Antifungal activity against Candida albicans isolated from HSCT recipients with acute or chronic GVHD prior to initiation of fluconazole therapy assessed as maximum MIC by broth microdilution method
Nakaseomyces glabratus [8] = assay: Antifungal activity against Candida glabrata isolated from neutropenic subject 1318 with AML or MDS stool receiving antifungal drug after 36 days prophylaxis by broth microdilution method
Nakaseomyces glabratus [9] = assay: Antifungal activity against 31 days cultured Candida glabrata isolated from HSCT recipient with acute or chronic GVHD mouth receiving antifungal therapy for 31 days after 28 days of prophylaxis by broth microdilution method
Candida albicans [10] = assay: Antifungal activity against Candida albicans isolated from HSCT recipient 031 with acute or chronic GVHD mouth receiving antifungal drug after 109 days prophylaxis by broth microdilution method
Nakaseomyces glabratus [11] = assay: Antifungal activity against 59 days cultured Candida glabrata isolated from HSCT recipient with acute or chronic GVHD mouth receiving antifungal therapy for 75 days after 33 days of prophylaxis by broth microdilution method
Candida tropicalis = assay: Antifungal activity against 2 days cultured Candida tropicalis isolated from neutropenic subject with AML or MDS pharynx receiving antifungal therapy for 45 days after 24 days of prophylaxis by broth microdilution method
Candida albicans [12] = assay: Antifungal activity against Candida albicans isolated from neutropenic subjects with AML or MDS prior to initiation of fluconazole therapy by broth microdilution method
Nakaseomyces glabratus [13] = assay: Antifungal activity against Candida glabrata isolated from HSCT recipient 474 with acute or chronic GVHD mouth after 124 days prophylaxis by broth microdilution method
Nakaseomyces glabratus [14] = assay: Antifungal activity against 36 days cultured Candida glabrata isolated from neutropenic subject with AML or MDS pharynx after 48 days of prophylaxis by broth microdilution method
Nakaseomyces glabratus [15] = assay: Antifungal activity against Candida glabrata isolated from HSCT recipient 474 with acute or chronic GVHD mouth receiving antifungal drug after 124 days prophylaxis by broth microdilution method
Pichia kudriavzevii [16] = assay: Antifungal activity against Candida krusei isolated from HSCT recipients with acute or chronic GVHD receiving fluconazole assessed as maximum MIC by broth microdilution method
Candida albicans [17] = assay: Antifungal activity against Candida albicans isolated from neutropenic subjects with AML or MDS prior to initiation of posaconazole therapy assessed as maximum MIC by broth microdilution method
Pichia kudriavzevii [18] = assay: Antifungal activity against 8 days cultured Candida krusei isolated from neutropenic subject with AML or MDS stool after 12 days of prophylaxis by broth microdilution method
Candida albicans [19] = assay: Antifungal activity against Candida albicans isolated from HSCT recipient 262 with acute or chronic GVHD mouth after 115 days prophylaxis by broth microdilution method
Saccharomyces cerevisiae = assay: Antifungal activity against Saccharomyces cerevisiae isolated from HSCT recipient 513 with acute or chronic GVHD mouth receiving antifungal drug after 112 days prophylaxis by broth microdilution method
Candida albicans [20] = assay: Antifungal activity against Candida albicans isolated from HSCT recipient 262 with acute or chronic GVHD mouth receiving antifungal drug after 115 days prophylaxis by broth microdilution method
Nakaseomyces glabratus [21] = assay: Antifungal activity against Candida glabrata isolated from neutropenic subjects with AML or MDS prior to initiation of fluconazole therapy assessed as maximum MIC by broth microdilution method
Nakaseomyces glabratus [22] = assay: Antifungal activity against 62 days cultured Candida glabrata isolated from HSCT recipient with acute or chronic GVHD mouth receiving antifungal therapy for 143 days after 116 days of prophylaxis by broth microdilution method
Nakaseomyces glabratus [23] = assay: Antifungal activity against 14 days cultured Candida glabrata isolated from HSCT recipient with acute or chronic GVHD mouth after 17 days of prophylaxis by broth microdilution method
Nakaseomyces glabratus [24] = assay: Antifungal activity against 15 days cultured Candida glabrata isolated from HSCT recipient with acute or chronic GVHD mouth receiving antifungal therapy for 168 days after 113 days of prophylaxis by broth microdilution method
Nakaseomyces glabratus [25] = assay: Antifungal activity against 10 days cultured Candida glabrata isolated from neutropenic subject with AML or MDS stool receiving antifungal therapy for 37 days after 9 days of prophylaxis by broth microdilution method
Nakaseomyces glabratus [26] = assay: Antifungal activity against Candida glabrata isolated from neutropenic subject 1187 with AML or MDS stool receiving antifungal drug after 22 days prophylaxis by broth microdilution method; details: 528 h
Nakaseomyces glabratus [27] = assay: Antifungal activity against Candida glabrata isolated from HSCT recipients with acute or chronic GVHD prior to initiation of posaconazole therapy assessed as maximum MIC by broth microdilution method
Nakaseomyces glabratus [28] = assay: Antifungal activity against Candida glabrata isolated from HSCT recipient 975 with acute or chronic GVHD mouth after 112 days prophylaxis by broth microdilution method
Nakaseomyces glabratus [29] = assay: Antifungal activity against Candida glabrata isolated from HSCT recipient 807 with acute or chronic GVHD mouth receiving antifungal drug after 114 days prophylaxis by broth microdilution method
Nakaseomyces glabratus [30] = assay: Antifungal activity against Candida glabrata isolated from neutropenic subject 1491 with AML or MDS pharynx receiving antifungal drug after 23 days prophylaxis by broth microdilution method; details: 552 h
Nakaseomyces glabratus [31] = assay: Antifungal activity against Candida glabrata isolated from HSCT recipient 497 with acute or chronic GVHD mouth receiving antifungal drug after 114 days prophylaxis by broth microdilution method
Candida albicans [32] = assay: Antifungal activity against 1 day cultured Candida albicans isolated from HSCT recipient with acute or chronic GVHD mouth after 2 days of prophylaxis by broth microdilution method
Nakaseomyces glabratus [33] = assay: Antifungal activity against 111 days cultured Candida glabrata isolated from HSCT recipient with acute or chronic GVHD mouth receiving antifungal therapy for 143 days after 116 days of prophylaxis by broth microdilution method
Nakaseomyces glabratus [34] = assay: Antifungal activity against Candida glabrata isolated from neutropenic subjects with AML or MDS receiving fluconazole by broth microdilution method
Nakaseomyces glabratus [35] = assay: Antifungal activity against Candida glabrata isolated from HSCT recipient 807 with acute or chronic GVHD mouth after 114 days prophylaxis by broth microdilution method
Nakaseomyces glabratus [36] = assay: Antifungal activity against 88 days cultured Candida glabrata isolated from HSCT recipient with acute or chronic GVHD mouth receiving antifungal therapy for 75 days after 33 days of prophylaxis by broth microdilution method
Nakaseomyces glabratus [37] = assay: Antifungal activity against Candida glabrata isolated from neutropenic subjects with AML or MDS prior to initiation of posaconazole therapy by broth microdilution method

CCC(C)n1ncn(-c2ccc(N3CCN(c4ccc(OCC5COC(Cn6cncn6)(c6ccc(Cl)cc6Cl)O5)cc4)CC3)cc2)c1=O (stereo not drawn) [ITRACONAZOLE]
0.125 µg/mL: MIC (Nakaseomyces glabratus [6])
1 µg/mL: MIC (Nakaseomyces glabratus [3]) | MIC (Pichia kudriavzevii [5]) | MIC (Nakaseomyces glabratus [11]) | MIC (Nakaseomyces glabratus [14])
< 1 µg/mL: MIC (Nakaseomyces glabratus [9])
2 µg/mL: MIC50 (Nakaseomyces glabratus [4]) | MIC (Nakaseomyces glabratus [25]) | MIC90 (Nakaseomyces glabratus [34]) | MIC (Nakaseomyces glabratus [36])
0.06 µg/mL: MIC (Candida albicans [7]) | MIC (Candida albicans [10]) | MIC (Candida albicans [20])
0.015 µg/mL: MIC50 (Candida albicans [12]) | MIC90 (Candida albicans [12])
8 µg/mL: MIC (Nakaseomyces glabratus [15]) | MIC (Nakaseomyces glabratus [21]) | MIC (Nakaseomyces glabratus [22]) | MIC (Nakaseomyces glabratus [27]) | MIC (Nakaseomyces glabratus [30]) | MIC (Nakaseomyces glabratus [31]) | MIC90 (Nakaseomyces glabratus [37])
0.5 µg/mL: MIC (Pichia kudriavzevii [1]) | MIC50 (Nakaseomyces glabratus [34]) | MIC (Nakaseomyces glabratus [35])
4 µg/mL: MIC (Nakaseomyces glabratus [13]) | MIC (Saccharomyces cerevisiae) | MIC (Nakaseomyces glabratus [24]) | MIC (Nakaseomyces glabratus [26])
> 8 µg/mL: MIC (Nakaseomyces glabratus [8]) | MIC (Nakaseomyces glabratus [23]) | MIC (Nakaseomyces glabratus [29]) | MIC (Nakaseomyces glabratus [33])
< 0.015 µg/mL: MIC (Candida albicans [19])
0.03 µg/mL: MIC50 (Candida albicans [2]) | MIC (Candida tropicalis) | MIC (Candida albicans [17])
0.25 µg/mL: MIC90 (Candida albicans [2]) | MIC (Pichia kudriavzevii [18]) | MIC (Nakaseomyces glabratus [28]) | MIC50 (Nakaseomyces glabratus [37])
< 0.03 µg/mL: MIC (Candida albicans [32])
16 µg/mL: MIC90 (Nakaseomyces glabratus [4]) | MIC (Pichia kudriavzevii [16])

OC(Cn1cncn1)(Cn1cncn1)c1ccc(F)cc1F [FLUCONAZOLE]
128 µg/mL: MIC (Candida albicans [10]) | MIC (Nakaseomyces glabratus [29])
2 µg/mL: MIC (Candida albicans [17]) | MIC (Candida albicans [20])
16 µg/mL: MIC90 (Candida albicans [2]) | MIC50 (Nakaseomyces glabratus [4]) | MIC (Candida albicans [7]) | MIC (Nakaseomyces glabratus [11]) | MIC (Nakaseomyces glabratus [13]) | MIC90 (Nakaseomyces glabratus [34]) | MIC (Nakaseomyces glabratus [35]) | MIC90 (Nakaseomyces glabratus [37])
64 µg/mL: MIC90 (Nakaseomyces glabratus [4]) | MIC (Pichia kudriavzevii [5]) | MIC (Nakaseomyces glabratus [15]) | MIC (Pichia kudriavzevii [16]) | MIC (Nakaseomyces glabratus [21]) | MIC (Nakaseomyces glabratus [22]) | MIC (Nakaseomyces glabratus [24]) | MIC (Nakaseomyces glabratus [27]) | MIC (Nakaseomyces glabratus [33])
4 µg/mL: MIC (Nakaseomyces glabratus [28]) | MIC50 (Nakaseomyces glabratus [34]) | MIC50 (Nakaseomyces glabratus [37])
< 0.12 µg/mL: MIC (Candida albicans [32])
0.25 µg/mL: MIC50 (Candida albicans [2]) | MIC (Candida tropicalis) | MIC90 (Candida albicans [12]) | MIC (Candida albicans [19])
0.125 µg/mL: MIC50 (Candida albicans [12])
< 4 µg/mL: MIC (Nakaseomyces glabratus [9])
8 µg/mL: MIC (Nakaseomyces glabratus [3]) | MIC (Nakaseomyces glabratus [6]) | MIC (Nakaseomyces glabratus [14]) | MIC (Nakaseomyces glabratus [25])
32 µg/mL: MIC (Pichia kudriavzevii [1]) | MIC (Saccharomyces cerevisiae) | MIC (Nakaseomyces glabratus [26]) | MIC (Nakaseomyces glabratus [31])
> 64 µg/mL: MIC (Nakaseomyces glabratus [8]) | MIC (Pichia kudriavzevii [18]) | MIC (Nakaseomyces glabratus [23]) | MIC (Nakaseomyces glabratus [30]) | MIC (Nakaseomyces glabratus [36])
